Measurements from US12076307B2, “Compositions for prevention or treatment of acute radiation syndrome and other radiation exposure” (priority 2017, dated 2024).
“And” between values parts separate entries of the source, which are not always exact repeats. Equal values may be shown once.

Tests used:
[1] = test system: Balb/c mice, 1 Gy gamma radiation + 5-Fluorouracil + tongue scratch; experiment: Radiation-induced oral mucositis ARS model: survival, mucositis, blood neutrophils; type: in vivo, mouse; conditions: PLAG 250 mg/kg/day oral
Protocol: In order to further confirm the effect of PLAG on the acute radiation syndrome, an animal model of radiation-induced oral mucositis was prepared and tested as an acute radiation syndrome animal model with severer conditions than those in Example 1 above. First, Balb/c mice (8-week-old female) were purchased from Koatech (Republic of Korea) and maintained in a specific pathogen-free (SPF) environment to establish a radiation-induced oral mucositis model. In this example, first group of oral mucositis induced group (negative control) was compared to the second group where PLAG was orally administered to animals with induced oral mucositis.
Specifically, mice were exposed to 1 Gy whole body gamma radiation and scars of 0.2 cm on the mice tongue were scratched at 0, 7, 10 and 16 days with the same force and depth using an 18 gauge needle. On day 2 post-irradiation, 5-Fluorouracil (50 mg/kg/day) was intraperitoneally administered and PLAG was administered orally at 250 mg/kg/day for 18 days (Table 2).
Oral mucositis level was determined by counting the ulcer formation and edema of the tongue and the incidence of wound atrophy, and calculating the score of oral mucositis by a total of 5 blinded observers. On the 7th and 10th day, the blood of the experimental groups was collected and the number of neutrophils in the blood was measured by measuring the Complete Blood Count (CBC) using a Mindray BC-5300 auto hematology analyzer (Shenzhen Mindray Bio-medical Electronics, China).

Balb/c mice, 6.11 Gy TBI = experiment: Dosing schedule optimization (delayed treatment) in LD70/30 model; type: in vivo, mouse
Protocol: EC-18 was administered daily in-life with its optimal dosage (250 mg/kg) at 0, 1, 2, and 3 days after irradiation on Day 0. To examine the durable efficacy of EC-18, the survival was examined 15 days after the in-life phase without the daily treatment of EC-18.
EC-18 was administered daily in-life with its optimal dosage (250 mg/kg) at 0, 1, 2, and 3 days after irradiation on Day 0. The survival rate of the γ-radiation only group was 35%. The percentages of survival of the irradiated mice with EC-18+0d, +1d, +2d, and +3d were 80, 70, 55, and 80%, respectively (FIG. 72).

[2] = test system: Pseudomonas aeruginosa K (PAK); experiment: Co-culture of bone marrow-derived monocytes with PAK, CFU; type: cell-based; conditions: 100 μg/mL 1 hr; PAK MOI 50
Protocol: Structural-Activity Relationship Work of EC-18 To assess the optimal structure of EC-18, structural-activity relationship work was examined. A total of five structural analogs of EC-18 were selected by changing one fatty acid chain structure (red boxes in FIG. 43) and evaluated in bone marrow-derived monocytes co-cultured with Pseudomonas aeruginosa K (PAK). All analogs along with EC-18 were inoculated with PAK at the multiplicity of infection (MOI) of 50 for 30 mins and then, treated for 1 hr at the dosage of 100 μg/mL.
As a measure of […], the colony-forming units (CFUs) from each group were examined.

Sprague-Dawley rats = experiment: Central nervous system of rats (FOB); type: in vivo, rat; conditions: doses up to 2000 mg/kg; to 24 hrs
Protocol: Sprague-Dawley rats (n=8 males/group) received control material (olive oil) or EC-18 at 500, 1000, and 2000 mg/kg. The functional observational battery test, which included observations inside the cage, in open space, and while holding in the hands, along with sensory-motor function, and body temperature measurements were performed before EC-18 administration and 0.5, 1, 3, 6, and 24 hrs after control or EC-18 administration.

[3] = In vitro metabolic stability / metabolite screening, human liver microsomes; type: in vitro ADME; conditions: for Mean Peak Area in LC-RID: Human, N=2
Protocol: [^14C]EC-18 or the positive control (7-ethoxycoumarin; 7-EC) reacted with microsomes prepared from hepatocytes of rats, dogs, monkeys, and humans, with or without cofactors, for 60 and 120 min. Then, the residual EC-18 concentration over time was measured by LC-RID ([^14C]EC-18) or LC-MS/MS (7-EC) (FIG. 63 and FIG. 64).
Each test system was designed to examine phase 1 metabolic reaction (test system A), phase 2 metabolic reaction (test system B), and non-enzymatic degradation.
The LC-RID chromatographic profiles of radioactive metabolites produced in the 2-hr incubation reaction mixtures of the same test systems A, B, and C used to assess the metabolic and non-metabolic elimination rates of EC-18 were compared to the LC-UV chromatographic profiles of the synthetic reference material. […] The relative radioactivity of EC-18 accounted for 42-67% of total radioactivity. […]. The peaks of M4 and M6 were determined in monkeys and humans. M1 was abundantly detected in all species, but it was assumed to be a peak of early elution. The LC-UV chromatograms of reaction mixtures in each test system (FIGS. 65A-65C) and the relative radioactivity of the screened metabolites are shown in Table 25.

CYP2C19 = CYP2C19 (Homo sapiens, UniProt P33261); experiment: CYP enzyme inhibition in human liver microsomes, CYP2C19
CYP2C19, sequence (P33261 whole entry): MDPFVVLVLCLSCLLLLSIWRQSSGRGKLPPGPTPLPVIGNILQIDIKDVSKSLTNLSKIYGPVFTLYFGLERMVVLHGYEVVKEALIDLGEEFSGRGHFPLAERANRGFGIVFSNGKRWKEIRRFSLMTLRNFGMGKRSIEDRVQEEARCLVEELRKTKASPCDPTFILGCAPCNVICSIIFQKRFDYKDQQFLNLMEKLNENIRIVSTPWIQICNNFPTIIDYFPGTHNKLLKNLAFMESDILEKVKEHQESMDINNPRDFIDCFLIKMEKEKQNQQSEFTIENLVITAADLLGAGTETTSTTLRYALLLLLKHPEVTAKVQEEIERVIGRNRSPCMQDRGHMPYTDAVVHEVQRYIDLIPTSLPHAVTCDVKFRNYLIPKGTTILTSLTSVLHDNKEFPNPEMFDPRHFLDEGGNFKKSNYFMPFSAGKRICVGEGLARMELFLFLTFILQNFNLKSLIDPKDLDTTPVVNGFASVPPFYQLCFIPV
From the text: CYP1A2, CYP2C9, CYP2C19, CYP2D6, and CYP3A4 are the CYP subfamily, which plays a critical role in the metabolism of most drugs.

SD rat [4] = experiment: Repeated dose toxicity, SD rat; type: in vivo; conditions: Oral
From the text: (§1) Various toxicology studies have been performed. All studies were GLP-compliant unless otherwise noted.

[5] = Fertility and early embryonic developmental toxicity study; type: in vivo, rat; conditions: both sexes, SD, rat, in vivo; both males and females
From the text: as §1

SD rat [6] = experiment: as above; type: in vivo; conditions: Oral; 0, 500, 1000, 2000 mg/kg
From the text: as §1

[7] = 6.11 Gy, 250 mg/kg daily starting +0 d
[8] = 6.11 Gy, 250 mg/kg daily starting +1 d
[9] = 6.11 Gy, 250 mg/kg daily starting +2 d
[10] = 6.11 Gy, 250 mg/kg daily starting +3 d
[11] = 6.11 Gy, 250 mg/kg daily starting +3 d, 250 mg/kg

CCCCC/C=C\C/C=C\CCCCCCCC(=O)OC(COC(C)=O)COC(=O)CCCCCCCCCCCCCCC (stereo not shown) [EC-18, 1-palmitoyl-2-linoleoyl-3-acetylglycerol]
oral mucositis score [1]: significantly decreased
visually confirmed oral mucositis levels vs non-PLAG-treated group [1]: significantly reduced
neutrophil number in blood ([1]; days 7 and 10): significantly increased
survival rate ([1]; day 18, n=7): 85%
survival vs negative control (Balb/c mice, 6.11 Gy TBI; 250 mg/kg, even up to 3-day-delayed treatment regimen): significantly improved
weight loss induced by irradiation (Balb/c mice, 6.11 Gy TBI; 6.11 Gy, 250 mg/kg): effectively prevented and rapidly recovered weight loss
No. of mice that survived/total (Balb/c mice, 6.11 Gy TBI; [7]): 16/20
Survival (Balb/c mice, 6.11 Gy TBI; [7]): 80%
Survival time of decedents, Median (Balb/c mice, 6.11 Gy TBI; [7]): 24.5 days
Survival time of decedents, Mean ± SEM (Balb/c mice, 6.11 Gy TBI; 6.11 Gy, 250 mg/kg daily starting +0 d, 250 mg/kg): 25.0 days and 25.0 ± 1.1 days
No. of mice that survived/total (Balb/c mice, 6.11 Gy TBI; [8]): 14/20
Survival (Balb/c mice, 6.11 Gy TBI; [8]): 70%
Survival time of decedents, Median (Balb/c mice, 6.11 Gy TBI; [8]): 23.5 days
Survival time of decedents, Mean ± SEM (Balb/c mice, 6.11 Gy TBI; 6.11 Gy, 250 mg/kg daily starting +1 d, 250 mg/kg): 23.7 days and 23.7 ± 1.4 days
No. of mice that survived/total (Balb/c mice, 6.11 Gy TBI; [9]): 11/20
Survival (Balb/c mice, 6.11 Gy TBI; [9]): 55%
Survival time of decedents, Median (Balb/c mice, 6.11 Gy TBI; [9]): 18.0 days
Survival time of decedents, Mean ± SEM (Balb/c mice, 6.11 Gy TBI; 6.11 Gy, 250 mg/kg daily starting +2 d, 250 mg/kg): 18.1 days and 18.1 ± 0.8 days
No. of mice that survived/total (Balb/c mice, 6.11 Gy TBI; [10]): 11/20
Survival time of decedents, Median (Balb/c mice, 6.11 Gy TBI; [10]): 23.0 days
Survival (Balb/c mice, 6.11 Gy TBI; [11]): 80% and 55%
Survival time of decedents, Mean ± SEM (Balb/c mice, 6.11 Gy TBI; [11]): 22.3 days and 22.3 ± 1.6 days
durable efficacy after withdrawal of EC-18 (Balb/c mice, 6.11 Gy TBI; 15 days after the in-life phase without daily treatment): extended the survival of animals for an extra 15 days
colony-forming units (CFUs) vs other analogs or control groups [2]: significantly higher
CNS (functional observational battery) (Sprague-Dawley rats): did not affect the CNS
elimination rate ([3]; 1-hr reaction, test system A (Phase 1 metabolic reaction)): 21.2%
elimination rate ([3]; 1-hr reaction, test system B (Phase 2 metabolic reaction)): 25.5%
elimination rate ([3]; 1-hr reaction, test system C (non-enzymatic degradation)): 26.5%
elimination rate ([3]; 2-hr reaction, test system A): 32.8%
elimination rate ([3]; 2-hr reaction, test system B): 35.4%
elimination rate ([3]; 2-hr reaction, test system C): 32.6%
Mean Peak Area in LC-RID ([3]; A (NADPH added), [14C]EC-18 2 hrs): 67.2%
Mean Peak Area in LC-RID ([3]; B (NADPH, PAPS, UDPGA added), 2 hrs): 64.6%
Mean Peak Area in LC-RID ([3]; C (no cofactor added), 2 hrs): 67.4%
IC50 (CYP2C19): 83.6 µM
findings (SD rat [4]; 4 weeks (DRF)): No specific findings
mortality (SD rat [4]; 4 weeks (DRF), 0, 500, 1000, 2000 mg/kg): No dead animals
findings (SD rat [4]; 13 weeks): No specific findings
mortality (SD rat [4]; 13 weeks, 0, 500, 1000, 2000 mg/kg): No dead animals
findings (SD rat [4]; 26 weeks (4-week recovery)): No specific findings
mortality (SD rat [4]; 26 weeks (4-week recovery), male in 500 mg/kg group, 41st day, no relationship to EC-18 dosing): A single case of death
NOAEL [5]: 2000 mg/kg/day
mortality (SD rat [6]): No dead animals
